Test results reported in ChEMBL document CHEMBL5050844 (2019).
pIC50, pKd: −log10 of the molar value. Each block holds one compound with its values, some of them ahead of it.

Tests used:
[1] = Induction of anti-CD3/CD28 antibodies-stimulated human T cell activation at 1 uM assessed fold increase in CD25 expression measured by ELISA assay; format: functional, T cell line
[2] = Induction of anti-CD3 antibodies-stimulated human CD4+ T cell activation in immunocompetent mouse assessed fold increase in CD25 expression at 135 mg/kg, po administered twice a day; format: functional; also: reference of the scale not given here
[3] = Induction of anti-CD3 antibodies-stimulated human CD8+ T cell activation in immunocompetent mouse assessed fold increase in CD25 expression at 180 mg/kg, po administered twice a day; format: functional; also: reference of the scale not given here
[4] = Induction of anti-CD3 antibodies-stimulated human CD8+ T cell activation in immunocompetent mouse assessed fold increase in CD25 expression at 90 mg/kg, ip administered thrice a day; format: functional; also: reference of the scale not given here
[5] = Induction of anti-CD3 antibodies-stimulated human T cell activation at 8 uM assessed fold increase in IL-2 secretion measured by ELISA assay; format: functional, T cell line; also: reference of the scale not given here
[6] = Induction of anti-CD3 antibodies-stimulated human T cell activation at 8 uM assessed fold increase in CD25 expression measured by ELISA assay; format: functional, T cell line; also: reference of the scale not given here
[7] = Induction of anti-CD3 antibodies-stimulated human T cell activation at 1 uM assessed fold increase in CD25 expression measured by ELISA assay; format: functional, T cell line; also: reference of the scale not given here
[8] = Induction of anti-CD3 antibodies-stimulated human CD4+ T cell activation in immunocompetent mouse assessed fold increase in CD25 expression at 180 mg/kg, po administered twice a day; format: functional; also: reference of the scale not given here
[9] = Induction of anti-CD3 antibodies-stimulated human T cell activation at 1 uM assessed fold increase in IL-2 secretion measured by ELISA assay; format: functional, T cell line; also: reference of the scale not given here
[10] = Induction of anti-CD3 antibodies-stimulated human CD4+ T cell activation in immunocompetent mouse assessed fold increase in CD25 expression at 90 mg/kg, po administered twice a day; format: functional; also: reference of the scale not given here
[11] = Induction of anti-CD3 antibodies-stimulated human CD8+ T cell activation in immunocompetent mouse assessed fold increase in CD25 expression at 90 mg/kg, po administered twice a day; format: functional; also: reference of the scale not given here
[12] = Induction of anti-CD3/CD28 antibodies-stimulated human T cell activation at 0.3 uM assessed fold increase in CD25 expression measured by ELISA assay; format: functional, T cell line
[13] = Induction of anti-CD3/CD28 antibodies-stimulated human T cell activation at 4 uM assessed fold increase in IL-2 secretion measured by ELISA assay; format: functional, T cell line
[14] = Induction of anti-CD3 antibodies-stimulated human CD8+ T cell activation in immunocompetent mouse assessed fold increase in CD25 expression at 135 mg/kg, po administered twice a day; format: functional; also: reference of the scale not given here
[15] = biological target: T1, E3 ubiquitin-protein ligase CBL-B (Homo sapiens, UniProt Q13191); assay: Inhibition of N-terminal Avi-tagged human CBL-B (36 to 427 residues) incubated with 60 nM Src kinase for 1.5 hrs followed by incubation with fluorescently labeled UbcH5B-Ub for 1 hr and measured by TR-FRET assay; format: single protein
[16] = Induction of anti-CD3/CD28 antibodies-stimulated human T cell activation at 1 uM assessed fold increase in IL-2 secretion measured by ELISA assay; format: functional, T cell line
[17] = Induction of anti-CD3/CD28 antibodies-stimulated human T cell activation at 4 uM assessed fold increase in CD25 expression measured by ELISA assay; format: functional, T cell line
[18] = Induction of anti-CD3/CD28 antibodies-stimulated human T cell activation at 0.3 uM assessed fold increase in IL-2 secretion measured by ELISA assay; format: functional, T cell line
[19] = biological target: T1, E3 ubiquitin-protein ligase CBL-B; assay: Inhibition of N-terminal Avi-tagged human CBL-B (36 to 427 residues) incubated with 30 nM Src kinase for 1.5 hrs followed by incubation with fluorescently labeled UbcH5B-Ub for 1 hr and measured by TR-FRET assay
[20] = biological target: T1, E3 ubiquitin-protein ligase CBL-B; assay: Binding affinity towards N-terminal biotinylated Avi-tagged human CBL-B (36 to 427 residues) measured by surface plasmon resonance assay
[21] = Induction of activation of human CD56+ CD3- NK cells co-cultured with human K562 cells in 5:1 ratio and assessed as increase in IFN-gamma secretion at 1 uM measured by ELISA assay; format: functional, Natural killer cell
[22] = Induction of activation of human CD56+ CD3- NK cells co-cultured with human K562 cells in 1:1 ratio and assessed as increase in TNF-alpha secretion at 1 uM measured by ELISA assay; format: functional, Natural killer cell
[23] = Induction of activation of human CD56+ CD3- NK cells co-cultured with human K562 cells in 5:1 ratio and assessed as increase in TNF-alpha secretion at 1 uM measured by ELISA assay; format: functional, Natural killer cell
[24] = Induction of activation of human CD56+ CD3- NK cells co-cultured with human K562 cells in 5:1 ratio and assessed as increase in MIP1beta secretion at 1 uM measured by ELISA assay; format: functional, Natural killer cell
[25] = Induction of activation of human CD56+ CD3- NK cells co-cultured with human K562 cells in 1:1 ratio and assessed as increase in IFN-gamma secretion at 1 uM measured by ELISA assay; format: functional, Natural killer cell
[26] = Induction of activation of human CD56+ CD3- NK cells co-cultured with human K562 cells in 1:1 ratio and assessed as increase in MIP1beta secretion at 1 uM measured by ELISA assay; format: functional, Natural killer cell
[27] = Induction of activation of human CD56+ CD3- NK cells co-cultured with human K562 cells in 5:1 ratio and assessed as increase in IFN-gamma secretion at 10 uM measured by ELISA assay; format: functional, Natural killer cell
[28] = Induction of activation of human CD56+ CD3- NK cells co-cultured with human K562 cells in 1:1 ratio and assessed as increase in MIP1beta secretion at 10 uM measured by ELISA assay; format: functional, Natural killer cell
[29] = Induction of activation of human CD56+ CD3- NK cells co-cultured with human K562 cells in 1:1 ratio and assessed as increase in IFN-gamma secretion at 10 uM measured by ELISA assay; format: functional, Natural killer cell
[30] = Induction of activation of human CD56+ CD3- NK cells co-cultured with human K562 cells in 5:1 ratio and assessed as increase in TNF-alpha secretion at 10 uM measured by ELISA assay; format: functional, Natural killer cell
[31] = Induction of activation of human CD56+ CD3- NK cells co-cultured with human K562 cells in 5:1 ratio and assessed as increase in MIP1beta secretion at 10 uM measured by ELISA assay; format: functional, Natural killer cell
[32] = Induction of activation of human CD56+ CD3- NK cells co-cultured with human K562 cells in 1:1 ratio and assessed as increase in TNF-alpha secretion at 10 uM measured by ELISA assay; format: functional, Natural killer cell

T1 sequence (Q13191 whole entry, the tested form may be a part): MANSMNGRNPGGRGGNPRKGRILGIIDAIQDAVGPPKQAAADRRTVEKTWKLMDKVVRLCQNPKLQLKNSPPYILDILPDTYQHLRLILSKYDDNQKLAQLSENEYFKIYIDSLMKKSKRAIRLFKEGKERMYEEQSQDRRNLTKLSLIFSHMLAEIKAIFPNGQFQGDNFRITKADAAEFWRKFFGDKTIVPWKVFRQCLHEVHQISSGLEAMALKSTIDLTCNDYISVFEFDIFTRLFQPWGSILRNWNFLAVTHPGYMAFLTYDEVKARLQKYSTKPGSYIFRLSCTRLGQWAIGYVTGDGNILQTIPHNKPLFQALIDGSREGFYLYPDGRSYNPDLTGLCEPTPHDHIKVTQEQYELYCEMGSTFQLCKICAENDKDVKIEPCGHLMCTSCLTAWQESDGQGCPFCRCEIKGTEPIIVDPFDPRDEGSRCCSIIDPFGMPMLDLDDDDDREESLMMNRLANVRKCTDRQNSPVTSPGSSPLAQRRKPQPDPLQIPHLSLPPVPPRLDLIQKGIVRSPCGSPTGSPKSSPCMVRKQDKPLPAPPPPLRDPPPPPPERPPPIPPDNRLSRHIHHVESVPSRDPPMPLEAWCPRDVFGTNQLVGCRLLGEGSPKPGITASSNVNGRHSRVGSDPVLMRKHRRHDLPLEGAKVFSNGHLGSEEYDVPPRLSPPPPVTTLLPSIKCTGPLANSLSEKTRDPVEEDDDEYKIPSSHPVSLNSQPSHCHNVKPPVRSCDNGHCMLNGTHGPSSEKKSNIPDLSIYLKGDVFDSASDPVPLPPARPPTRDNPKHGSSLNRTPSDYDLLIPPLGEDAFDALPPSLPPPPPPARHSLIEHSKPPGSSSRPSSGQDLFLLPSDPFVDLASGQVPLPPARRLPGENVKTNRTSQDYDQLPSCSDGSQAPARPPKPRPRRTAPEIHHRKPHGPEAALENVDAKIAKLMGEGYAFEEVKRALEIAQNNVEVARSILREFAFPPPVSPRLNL

pIC50 [15]: > 7.00
SMILES: Cn1cnnc1CC1(c2cccc(N3Cc4c(cc(CN5CC[C@H](F)C5)cc4C(F)(F)F)C3=O)c2)COC1
fold change (FC) [1]: 1.51
fold change (FC) [2]: 1
fold change (FC) [3]: 1
fold change (FC) [4]: 1
fold change (FC) [5]: >=0.201
fold change (FC) [6]: >=1.001
fold change (FC) [7]: >=1.001
fold change (FC) [8]: 1
fold change (FC) [9]: >=0.201
fold change (FC) [10]: 1
fold change (FC) [11]: 1
fold change (FC) [12]: 1.31
fold change (FC) [13]: >=7.5
fold change (FC) [14]: 1
fold change (FC) [16]: >=7.5
fold change (FC) [17]: 1.51
fold change (FC) [18]: 5

pIC50 [19]: < 5.00
pKd [20]: < 5.00
SMILES: CC(Sc1nncn1C)c1cccc(NC(=O)c2ccc3ncccc3c2)c1 (stereo not drawn)

pIC50 [19]: < 5.00
pKd [20]: < 5.00
SMILES: COc1cccc(C(=O)Nc2cccc(C(C)Sc3nncn3C)c2)c1 (stereo not drawn)

SMILES: C[C@@H](Cc1nncn1C)c1cccc(N2Cc3c(cccc3C(F)(F)F)C2=O)c1
fold change (FC) [2]: <1
fold change (FC) [3]: <1
fold change (FC) [8]: <1
fold change (FC) [11]: <1
fold change (FC) [14]: <1

pIC50 [19]: ≤ 5.52
pKd [20]: < 5.00
SMILES: C[C@H](Sc1nncn1C)c1ccnc(N)c1

pKd [20]: > 7.00
pIC50 [15]: > 7.00
SMILES: Cn1cnnc1CC1(c2cccc(N3Cc4c(cc(CN5CCC(C)(F)CC5)cc4C(F)(F)F)C3=O)c2)COC1
fold change (FC) [1]: 1.31
fold change (FC) [2]: 1
fold change (FC) [3]: <1
fold change (FC) [4]: 1
fold change (FC) [7]: >=1.001
fold change (FC) [8]: 1
fold change (FC) [9]: >=0.201
fold change (FC) [10]: 1
fold change (FC) [11]: 1
fold change (FC) [12]: 1.31
fold change (FC) [14]: <1
fold change (FC) [16]: >=7.5
fold change (FC) [18]: >=7.5

pIC50 [19]: ≤ 5.52
pKd [20]: ≤ 5.52
SMILES: Cc1nc2cc(C(C)Sc3nncn3C)cc(N)c2o1 (stereo not drawn)

pKd [20]: > 7.00
pIC50 [15]: > 7.00
SMILES: C[C@H](Cc1nncn1C)c1cccc(NC(=O)c2cc(C(=O)N3CC[C@H](O)C3)cc(C(F)(F)F)n2)c1
fold change (FC) [1]: 1.51
fold change (FC) [21]: 1.01
fold change (FC) [22]: 1.01
fold change (FC) [5]: >=0.201
fold change (FC) [23]: 1.01
fold change (FC) [6]: >=1.001
fold change (FC) [24]: 1.01
fold change (FC) [25]: 1.01
fold change (FC) [7]: >=1.001
fold change (FC) [26]: 1.01
fold change (FC) [9]: >=0.201
fold change (FC) [27]: 2.01
fold change (FC) [28]: 2.01
fold change (FC) [29]: 2.01
fold change (FC) [12]: 1.31
fold change (FC) [13]: >=7.5
fold change (FC) [30]: 2.01
fold change (FC) [16]: >=7.5
fold change (FC) [31]: 2.01
fold change (FC) [32]: 2.01
fold change (FC) [17]: >=1.76
fold change (FC) [18]: 2.51

pIC50 [19]: < 5.00
pKd [20]: < 5.00
SMILES: COc1ccc(C(=O)Nc2cccc(C(C)Sc3nncn3C)c2)cc1 (stereo not drawn)

pIC50 [19]: ≥ 6.00
pKd [20]: ≤ 6.00
pIC50 [15]: ≥ 6.00
SMILES: C[C@H](Sc1nncn1C)c1cccc(NC(=O)c2ccc3ccccc3n2)c1
fold change (FC) [1]: 1.01
fold change (FC) [5]: 0.051
fold change (FC) [6]: 0.601
fold change (FC) [7]: 0.601
fold change (FC) [9]: <=0.05
fold change (FC) [12]: 1.01
fold change (FC) [13]: 1.01
fold change (FC) [16]: 1.01
fold change (FC) [17]: 1.01
fold change (FC) [18]: 1.01

SMILES: Cn1cnnc1C(F)(F)[C@](C)(F)c1cccc(N2Cc3c(cccc3C(F)(F)F)C2=O)c1
fold change (FC) [1]: 1.01
fold change (FC) [21]: <=1
fold change (FC) [22]: <=1
fold change (FC) [5]: >=0.201
fold change (FC) [23]: <=1
fold change (FC) [6]: >=1.001
fold change (FC) [24]: <=1
fold change (FC) [25]: 1.01
fold change (FC) [7]: 0.601
fold change (FC) [26]: <=1
fold change (FC) [9]: 0.151
fold change (FC) [27]: 1.01
fold change (FC) [28]: <=1
fold change (FC) [29]: 2.01
fold change (FC) [12]: 1.01
fold change (FC) [13]: 2.51
fold change (FC) [30]: <=1
fold change (FC) [16]: 1.01
fold change (FC) [31]: <=1
fold change (FC) [32]: 1.01
fold change (FC) [17]: 1.01
fold change (FC) [18]: 1.01

pIC50 [19]: < 5.00
SMILES: CC(Sc1nncn1C)c1cccc(NC(=O)c2ccc3cnccc3c2)c1 (stereo not drawn)

pIC50 [19]: < 5.00
pKd [20]: < 5.00
SMILES: CC(Sc1nncn1C)c1cccc(NC(=O)c2ccc3ccncc3c2)c1 (stereo not drawn)

pIC50 [19]: < 5.00
pKd [20]: ≤ 5.52
SMILES: C[C@@H](Sc1nncn1C)c1cccc(NC(=O)c2ccc3ccccc3n2)c1
fold change (FC) [21]: <=1
fold change (FC) [22]: <=1
fold change (FC) [23]: <=1
fold change (FC) [24]: <=1
fold change (FC) [25]: <=1
fold change (FC) [26]: 1.01
fold change (FC) [27]: <=1
fold change (FC) [28]: <=1
fold change (FC) [29]: <=1
fold change (FC) [30]: <=1
fold change (FC) [31]: <=1
fold change (FC) [32]: <=1

pIC50 [19]: ≤ 5.52
pKd [20]: < 5.00
SMILES: CC(Sc1nncn1C)c1cccc(NC(=O)c2ccccn2)c1 (stereo not drawn)

pIC50 [19]: ≤ 5.52
SMILES: CC(Sc1nncn1C)c1cccc(NC(=O)c2cnc3ccccc3c2)c1 (stereo not drawn)

pIC50 [19]: < 5.00
SMILES: Cc1ccc2ccc(C(=O)Nc3cccc(C(C)Sc4nncn4C)c3)nc2n1 (stereo not drawn)

pKd [19]: ≤ 6.00
pKd [20]: ≤ 6.00
pIC50 [15]: ≥ 6.00
SMILES: CC(Sc1nncn1C)c1cccc(NC(=O)c2ccc3ccccc3n2)c1 (stereo not drawn)
fold change (FC) [1]: <=1
fold change (FC) [5]: 0.051
fold change (FC) [6]: 0.601
fold change (FC) [7]: <=0.6
fold change (FC) [9]: <=0.05
fold change (FC) [12]: <=1
fold change (FC) [13]: 2.51
fold change (FC) [16]: 1.01
fold change (FC) [17]: 1.01
fold change (FC) [18]: 1.01

pIC50 [19]: < 5.00
pKd [20]: < 5.00
SMILES: COc1ccccc1C(=O)Nc1cccc(C(C)Sc2nncn2C)c1 (stereo not drawn)
